Columns and labels:
[1] = system: JNK; assay: JNK solid state kinase assay (GST-Jun) in L929 cells; type: cell-based, murine
Procedure: (§1) In panel A cells were treated for 10 minutes with the indicated concentration of TNFα. JNK activation was measured using a solid phase kinase assay resulting in phosphorylation of GST-Jun. In […] the time course of MAPK activation is shown. MAPK was isolated from cell lysates on DEAE sephacel columns and MAPK activation was measured by phosphorylation of the EGFR peptide substrate. Panel C depicts the concentration curve of MAPK activation by TNFα. Cells were treated with the indicated concentration of TNFα and MAPK was assayed.
(§2) Cell lines and culture. L929 cells (ATCC CCL1 were maintained in Dulbecco's modified Eagle's medium with 5% newborn calf serum and 5% bovine calf serum (BCS) supplemented with 100 ug/ml streptomycin and 100 U/ml penicillin. The cells were grown in 10 cm dishes at 37° C. in 7.5% CO2. Cells were made quiescent where indicated by incubation in Dulbecco's modified Eagle's medium and 0.1% bovine serum albumin for 24 h. Recombinant murine TNFα and recombinant human bFGF (147aa) were from R&D Systems, Minneapolis, Minn. Cells were pretreated where indicated with the MEK-1 inhibitor PD#098059 (Parke-Davis Pharmaceutical Corp. Ann Arbor, Mich.) for 1 h at 37° C. Cells were stimulated by incubation with the indicated cytokine or growth factor for various times at 37° C. Stimulation was stopped by rinsing the plates twice with ice cold phosphate buffered saline (PBS) and lysing the cells in the appropriate lysis buffer. Cells were scraped from the plates and nuclei were pelleted for 10 min at 14,000 RPM in a microcentrifuge. JNK assay. JNK activity was measured using a solid state kinase assay in which glutathione S-transferase-c-Jun (1-79) (GST-JUN) cound to glutathione-Sepharose 4B beads was used to affinity purify JNK and then JNK activity was measured in an in vitro kinase assay using the sepharose bound GST-Jun as a substrate (Hibi, M., et al. (1993) Genes & Development 7:2135-2148). Stimulated or unstimulated cells were lysed in 0.5% Nonidet P-40, 20 mM HEPES pH 7.2, 100 mM NaCl, 2 mM dithiothreitol, 1 mM EDTA, 1.0 mM phenylmethylsulfonylfluoride, 1 μg/ml aprotinin and the nuclei pelleted. Lysates were normalized for protein content. JNK was affinity purified from 50-100 μg of cell lysate by the addition of 10 ul of GST-Jun sepharose slurry (2 μg GST-Jun). Binding to GST-Jun efficiently isolates the two major forms of JNK (p45 and p55) and under the conditions used JNK isolation was linear for 10-250 μg of cell lysate. The lysates were rotated at 4° C. for 1-3 h. Beads were washed twice in lysis buffer and then twice in PAN (10 mM PIPES, pH 7.0, 100 mM NaCl, 21 μg/ml aprotinin). Kinase reactions were carried out at 30° C. for 15 min in 20 mM Hepes pH 7.2, 20 mM β-glycerophosphate, 10 mM p-nitrophenyl phosphate, 10 mM MgCl2, 1 mM dithiothreitol, 50 μm sodium vanadate, 10 μCi γ^32P-ATP 4300 Ci/mmole. The kinase reaction was linear from 0-30 min. MAPK Assay MAPK activity was measured exactly as described previously (Gardner, A. M., et al. (1994) Meth. Enzymol. 238:258-270) with the exception that MonoQ FPLC fractionation was replaced by step elution from a DEAE-Sephacel column using 0.5 M NaCl in loading buffer. The eluate was assayed in triplicate using the epidermal growth factor receptor 662-681 peptide (EGFR662-681) as a selective substrate for MAPK activity (Heasley, L. E., et al. (1994) American Journal of Physiology (Renal Fluid Electrolyte Physiol. 36) 267:F366-F373). […] Cells were lysed by scraping in ice cold RIPA buffer (50 mM Tris-HCl, pH 7.2, 150 mM NaCl, 0.1% SDS, 0.5% sodium deoxycholate, 1.0% Triton X-100, 10 mM sodium pyrophosphate, 25 mM β-glycerophosphate, 2 mM sodium vanadate, 2.1 μg/ml aprotinin) and the nuclei were pelletted. […]

[2] = system: p42/p44 MAPK; assay: MAPK assay (DEAE-Sephacel, EGFR662-681 peptide) in L929 cells; type: cell-based, murine
Procedure: as §1
FIG. 26 depicts the activation of MAPK by bFGF in L929 cells. Serum starved L929 cells were stimulated for 10 min with the indicated concentration of bFGF.
as §2

Substance	JNK activation ([1]; 0.1 ng/ml TNFα)	JNK activity relative to basal ([1]; 1-2 hr post-stimulation)	concentration giving maximal JNK activation ([1]; L929 cells)	time of peak JNK activity ([1]; L929 cells)	MAPK activity stimulated above basal ([2]; 1 ng/ml TNFα)	effect on MAPK activity ([2]; 1 ng/ml TNFα, FIG. 27 panel B)	concentration required to stimulate p42/p44 MAPK 2-3 fold ([2]; L929 cells)	effect on bFGF stimulation of MAPK activity ([2]; L929 cells)	time to maximal stimulation of p42/p44 MAPK activity ([2]; L929 cells)	effect on JNK activity ([1]; 2.5 ng/ml bFGF)	effect on TNFα stimulation of JNK ([1]; L929 cells)	concentrations giving maximal stimulation of MAPK activity ([2]; serum starved L929 cells, 10 min)
TNFα	greater than four-fold	two-fold above basal	1 ng/mL	10 to 15 min	20%	only modest stimulatory effects on MAPK activity	Greater than 10 ng/ml	had little or no effect on bFGF stimulation of MAPK activity	5 to 10 min			
bFGF: recombinant human bFGF (147aa), basic fibroblast growth factor										little or no effect on JNK activity	did not alter the magnitude of JNK activation in response to TNFα	0.25 to 0.5 ng/mL
